Laboratory results published in PubChem BioAssay (NCI).
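Method: 48-hour compound exposure of cells in 96-well plates, five concentrations, linear interpolation of endpoints. TGI is the concentration that stops growth completely.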

Experiments:
Assay in all cases: growth of human tumour cells (NCI), 48 h
CAKI-1 renal = tested on: CAKI-1 renal
SK-MEL-2 melanoma = tested on: SK-MEL-2 melanoma
HL-60(TB) leukemia = tested on: HL-60(TB) leukemia
HS 578T breast = tested on: HS 578T breast
KM20L2 colon = tested on: KM20L2 colon
SK-OV-3 ovarian = tested on: SK-OV-3 ovarian
HCC-2998 colon = tested on: HCC-2998 colon
SNB-78 CNS = tested on: SNB-78 CNS
OVCAR-8 ovarian = tested on: OVCAR-8 ovarian
HCT-15 colon = tested on: HCT-15 colon

CCOC(CN=c1nc(N(C)C)ss1)OCC
TGI (CAKI-1 renal): 41.3 µM
TGI (SK-MEL-2 melanoma): 48.9 µM
TGI (HL-60(TB) leukemia): 12 µM
TGI (HS 578T breast): > 82.5 µM
TGI (KM20L2 colon): > 72.5 µM
TGI (SK-OV-3 ovarian): > 100 µM
TGI (HCC-2998 colon): > 100 µM
TGI (SNB-78 CNS): 51.5 µM
TGI (OVCAR-8 ovarian): 46.7 µM
TGI (HCT-15 colon): 42.8 µM

CC(=O)OCC1OC(n2c(=O)n(-c3ccccc3)c(=O)c3ccccc32)C(OC(C)=O)C(OC(C)=O)C1OC(C)=O (stereo not drawn)
TGI (CAKI-1 renal): > 100 µM
TGI (SK-MEL-2 melanoma): > 100 µM
TGI (HL-60(TB) leukemia): > 100 µM
TGI (KM20L2 colon): > 100 µM
TGI (SK-OV-3 ovarian): > 100 µM
TGI (HCC-2998 colon): > 100 µM
TGI (SNB-78 CNS): > 100 µM
TGI (OVCAR-8 ovarian): > 100 µM
TGI (HCT-15 colon): > 100 µM

CCOC(=O)C1C(=O)c2ccccc2CN1Cc1ccccc1 (stereo not drawn)
TGI (CAKI-1 renal): > 100 µM
TGI (SK-MEL-2 melanoma): > 100 µM
TGI (HL-60(TB) leukemia): > 100 µM
TGI (KM20L2 colon): > 100 µM
TGI (SK-OV-3 ovarian): > 100 µM
TGI (HCC-2998 colon): > 100 µM
TGI (SNB-78 CNS): > 100 µM
TGI (OVCAR-8 ovarian): > 100 µM
TGI (HCT-15 colon): > 100 µM

O=C1C(=O)N(c2ccc(Cl)c(Cl)c2)C(=O)C(=O)C1c1nc2ccccc2o1
TGI (CAKI-1 renal): > 100 µM
TGI (SK-MEL-2 melanoma): > 100 µM
TGI (HL-60(TB) leukemia): 53 µM
TGI (KM20L2 colon): > 100 µM
TGI (SK-OV-3 ovarian): > 100 µM
TGI (HCC-2998 colon): > 100 µM
TGI (SNB-78 CNS): > 100 µM
TGI (OVCAR-8 ovarian): > 100 µM
TGI (HCT-15 colon): > 100 µM

COc1ccc2ccc([Se]c3ccc4ccc(OC)cc4c3)cc2c1
TGI (CAKI-1 renal): > 100 µM
TGI (SK-MEL-2 melanoma): > 100 µM
TGI (HL-60(TB) leukemia): > 100 µM
TGI (KM20L2 colon): > 100 µM
TGI (SK-OV-3 ovarian): > 100 µM
TGI (HCC-2998 colon): > 100 µM
TGI (SNB-78 CNS): > 100 µM
TGI (OVCAR-8 ovarian): 98.2 µM
TGI (HCT-15 colon): > 100 µM

Cc1c2cc[nH]c(=O)c2cc2c(=O)c3cnccc3[nH]c12
TGI (CAKI-1 renal): > 100 µM
TGI (SK-MEL-2 melanoma): > 100 µM
TGI (HL-60(TB) leukemia): > 100 µM
TGI (KM20L2 colon): > 100 µM
TGI (SK-OV-3 ovarian): > 100 µM
TGI (HCC-2998 colon): > 100 µM
TGI (SNB-78 CNS): > 100 µM
TGI (OVCAR-8 ovarian): > 100 µM
TGI (HCT-15 colon): > 100 µM

CC1(C)OCC(CO)(Nc2nc(N3CC3)nc(N3CC3)n2)CO1
TGI (CAKI-1 renal): 13.8 µM
TGI (SK-MEL-2 melanoma): 40 µM
TGI (HL-60(TB) leukemia): 25.3 µM
TGI (HS 578T breast): 42.6 µM
TGI (KM20L2 colon): 51.8 µM
TGI (SK-OV-3 ovarian): 34.2 µM
TGI (HCC-2998 colon): 36.3 µM
TGI (SNB-78 CNS): > 100 µM
TGI (OVCAR-8 ovarian): 33.1 µM
TGI (HCT-15 colon): 45.8 µM

COC(=O)c1nc(NC#N)[nH]c(=O)c1C
TGI (CAKI-1 renal): > 100 µM
TGI (SK-MEL-2 melanoma): > 100 µM
TGI (HL-60(TB) leukemia): > 100 µM
TGI (KM20L2 colon): > 100 µM
TGI (SK-OV-3 ovarian): > 100 µM
TGI (HCC-2998 colon): > 100 µM
TGI (SNB-78 CNS): > 100 µM
TGI (OVCAR-8 ovarian): > 100 µM
TGI (HCT-15 colon): > 100 µM

O=C1OC2(c3ccccc3Oc3ccccc32)c2ccccc21
TGI (CAKI-1 renal): > 100 µM
TGI (SK-MEL-2 melanoma): > 100 µM
TGI (HL-60(TB) leukemia): > 100 µM
TGI (KM20L2 colon): > 100 µM
TGI (SK-OV-3 ovarian): > 100 µM
TGI (HCC-2998 colon): > 100 µM
TGI (SNB-78 CNS): > 100 µM
TGI (OVCAR-8 ovarian): > 100 µM
TGI (HCT-15 colon): > 100 µM
